Test results published in patent publication US12201671B2, “Polypeptides for treatment of cancer” (Saint Joseph's University, priority 2019, dated 2025).
Where no end group is shown, it is not given here. The star is where a group is joined. Biotin = O=C1N[C@H]2[C@H](CS[C@H]2CCCCC(=O)*)N1

T1: Estrogen Receptor α (Homo sapiens, UniProt P03372)
T1 sequence (P03372 1-595): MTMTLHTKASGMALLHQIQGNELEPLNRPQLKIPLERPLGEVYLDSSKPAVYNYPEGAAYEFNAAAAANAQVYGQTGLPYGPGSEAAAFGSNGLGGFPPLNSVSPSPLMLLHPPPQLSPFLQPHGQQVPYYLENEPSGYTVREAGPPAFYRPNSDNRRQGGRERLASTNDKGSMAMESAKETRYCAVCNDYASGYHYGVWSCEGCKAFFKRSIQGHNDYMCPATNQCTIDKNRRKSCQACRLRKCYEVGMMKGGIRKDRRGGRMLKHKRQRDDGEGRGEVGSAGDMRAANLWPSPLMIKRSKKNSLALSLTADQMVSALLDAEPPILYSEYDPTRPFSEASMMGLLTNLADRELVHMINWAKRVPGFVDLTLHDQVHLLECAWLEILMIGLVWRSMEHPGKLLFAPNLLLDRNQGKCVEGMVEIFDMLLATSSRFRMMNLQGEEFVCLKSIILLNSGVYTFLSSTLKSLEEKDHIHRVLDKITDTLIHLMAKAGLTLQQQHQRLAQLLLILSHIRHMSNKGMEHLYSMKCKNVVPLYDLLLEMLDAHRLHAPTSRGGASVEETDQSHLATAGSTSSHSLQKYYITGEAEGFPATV

T2: ERα (Homo sapiens, UniProt P03372)
T2 sequence (P03372 1-595): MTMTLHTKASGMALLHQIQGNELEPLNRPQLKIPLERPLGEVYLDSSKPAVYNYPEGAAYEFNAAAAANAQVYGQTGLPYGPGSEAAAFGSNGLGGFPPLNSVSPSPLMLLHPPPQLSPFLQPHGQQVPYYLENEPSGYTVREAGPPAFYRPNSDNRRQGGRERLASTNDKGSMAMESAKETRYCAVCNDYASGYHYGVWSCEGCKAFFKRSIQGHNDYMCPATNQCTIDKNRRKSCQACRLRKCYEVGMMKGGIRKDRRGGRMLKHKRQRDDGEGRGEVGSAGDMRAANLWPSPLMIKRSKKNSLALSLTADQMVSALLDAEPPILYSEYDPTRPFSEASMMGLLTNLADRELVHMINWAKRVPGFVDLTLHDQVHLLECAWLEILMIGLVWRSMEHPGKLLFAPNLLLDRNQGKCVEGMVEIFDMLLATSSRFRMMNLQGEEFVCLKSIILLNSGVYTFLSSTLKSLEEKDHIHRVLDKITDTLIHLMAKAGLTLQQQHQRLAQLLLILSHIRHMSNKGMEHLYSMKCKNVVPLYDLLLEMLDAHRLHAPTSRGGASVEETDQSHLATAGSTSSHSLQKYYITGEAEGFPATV


What was measured:
c-Jun [1] = target: T3, c-Jun (Homo sapiens, UniProt P05412); assay: Binding kinetics by biolayer interferometry (BLI), Octet HTX; conditions: 1:1 model; for koff: read-out: K off, binding to c-Jun; for kon: read-out: K on, binding to c-Jun
T3 construct: purchased Abcam
Experimental: The binding kinetics of the peptides and full-length recombinant CAPER (R&D Systems, Minneapolis, MN) with the c-Jun (Abcam, Cambridge, MA) were determined using biolayer interferometry (BLI) on the Octet HTX system (Pall ForteBio, Fremont, CA). Amine Reactive 2nd Generation biosensors (cat #18-5092, Pall ForteBio) were activated with 1-Ethyl-3-[3-dimethylaminopropyl] carbodiimide hydrochloride and N-hydroxysulfosuccinimide (EDC/NHS) (Amine Coupling Kit II, Cat #ACK-001-025, Sierra Sensors, Billerica, MA) and conjugated with an anti-his tag antibody. The reaction was then quenched with 1M ethanolamine (Amine Coupling Kit II, Cat #ACK-001-025, Sierra Sensors). His-tagged recombinant c-Jun was then bound to the tips. The peptides were tested at a series of 2-fold dilutions including a buffer blank. The binding of full-length recombinant CAPER was also tested. Association and dissociation steps were performed for 900s each in 1×HBS-EP+ buffer (cat #BR100669, GE Healthcare Lifesciences, Pittsburgh, PA) supplemented with 450 mM NaCl (Sigma). The background was subtracted from each run and kinetics data was analyzed using ForteBio's Data Analysis Software version 10.0.3.1 using a 1:1 model.

MDA-MB-231 cells [2] = assay: Cell cycle assay, nocodazole synchronized cells; format: cell-based; conditions: MDA-MB-231, 20 μM, 7 days
Experimental: (§1) MDA-MB-231 and BT549 cells were synchronized using nocodazole (cat #Sigma-Aldrich) for 24 hours. The floating cells were then aspirated off and the plate was rinsed with media to collect the loosely attached cells (G2/M fraction). The cells were then plated as described above. A fraction of the treated cells was processed for cell cycle to confirm synchronization. Cells were then treated for 7 days as described above, at the end of the 7 day dosing period, floating cells were collected and attached cells were washed 1× with PBS and then trypsinized with 0.05% trypsin. Cells were collected and combined with the floating cells. Cells were counted and diluted according to the Muse Cell Cycle Kit (cat #MCH100106, EMD Millipore) instructions and samples were then read on the Muse Cell Analyzer.

BT549 cells [3] = assay: Cell cycle assay, nocodazole synchronized cells; format: cell-based; conditions: BT549, 20 μM, 7 days
Experimental: as §1

MCF7 cells [4] = assay: Cell count after 7 day treatment with and without estradiol; format: cell-based; conditions: MCF7, 20 μM, 7 days, in the presence of estrogen
Experimental: (§2) MCF7 cells were switched to phenol free DMEM (cat #, 11054-020, Life Technologies), with 10% charcoal stripped FBS (cat #A33821-01, Life Technologies), 24 hrs prior to plating. After the starvation period, the cells were plated onto mm plates at cells/plate and allowed to adhere overnight. The next day cells were dosed with 20 μM of CAPER peptides along with a DMSO and TAT only controls with and without estradiol (E2) (cat #, Sigma). Cells were pre-treated with the peptide 4 hrs before the E2 was added. Cells were dosed daily for 7 days. At the end of the 7 day dosing period, floating cells were collected and adherent cells were trypsinized and counted via a hemocytometer

MCF10A cells [5] = assay: Apoptosis assay (Annexin V); format: cell-based; conditions: 20 μM, 7 days, vs DMSO and TAT controls
Experimental: (§3) Apoptosis was evaluated using both a Muse Caspase 3/7 kit (cat #MCH100108, EMD Millipore) and Muse Annexin V kit (Millipore cat #). Cells were treated for 7 days as described elsewhere herein, at the end of the 7 day dosing period, floating cells were collected and attached cells were washed 1× with PBS and then trypsinized with 0.05% trypsin. Cells were collected and combined with the floating cells. Cells were then counted and diluted to 20,000 cells/mL. For the caspase assay, 50 μL of cells were then incubated with the Muse Caspase 3/7 reagent at 37° C. for 30 min. After incubation 5 μL of 7-ADD dye was added and incubated for 5 min at room temperature. Cells were then analyzed on the Muse Cell Analyzer (Millipore). For the Annexin V assay, 100 μL of cells was then added to 100 μL of Annexin V reagent for 30 min at room temperature. Cells were then analyzed on the Muse Cell Analyzer (Millipore).

MCF10A cells [6] = assay: Cell count after 7 day treatment; format: cell-based; conditions: MCF10A non-tumorigenic, 20 μM daily, 7 days, vs DMSO and TAT controls
Experimental: (§4) MDA-MB-231, BT549, and MCF10A cells were plated onto 10 cm plates at 50,000 cells per plate, 100,000 cells per plate and 25,000 cells, respectively. The cells were allowed to adhere overnight, the next day cells were with 20 μM of CAPER peptides along with a DMSO and TAT only controls. Cells were dosed daily for 7 days. At the end of the 7 day dosing period, floating cells were collected and adherent cells were trypsinized and counted via a hemocytometer.

MDA-MB-231 cells [7] = assay: Cell count after 7 day treatment; format: cell-based; conditions: MDA-MB-231, 20 μM daily, 7 days, vs DMSO and TAT controls
Experimental: as §4

BT549 cells [8] = assay: Cell count after 7 day treatment; format: cell-based; conditions: BT549, 20 μM daily, 7 days, vs DMSO and TAT controls
Experimental: as §4

MCF7 cells [9] = assay: Apoptosis assays (Muse Caspase 3/7 and Annexin V); format: cell-based; conditions: MCF7, 20 μM, 7 days, in the presence of estrogen
Experimental: as §2, §3

Estrogen Receptor α = target: T1, Estrogen Receptor α; assay: Binding kinetics (BLI) to Estrogen Receptor α; conditions: for koff: read-out: K off, binding to Estrogen Receptor α; for kon: read-out: K on, binding to Estrogen Receptor α
MDA-MB-231 cells [10] = assay: Apoptosis assays (Muse Caspase 3/7 and Annexin V); format: cell-based; conditions: MDA-MB-231, 20 μM, 7 days
Experimental: as §3

BT549 cells [11] = assay: Apoptosis assays (Muse Caspase 3/7 and Annexin V); format: cell-based; conditions: BT549, 20 μM, 7 days
Experimental: as §3

ERα = target: T2, ERα; assay: Inhibition of full-length recombinant CAPER binding to ERα
c-Jun [12] = target: T3, c-Jun; assay: BLI competition assay: full-length CAPER binding to peptide-saturated c-Jun; conditions: c-Jun saturated with peptide at 10x KD; compared to CAPER binding without peptide
Experimental: Competition assays were determined using BLI on the Octet HTX system (Pall ForteBio, Fremont, CA). Amine Reactive 2nd Generation biosensors (cat #18-5092, Pall ForteBio) were activated with 1-Ethyl-3-[3-dimethylaminopropyl] carbodiimide hydrochloride and N-hydroxysulfosuccinimide (EDC/NHS) (Amine Coupling Kit II, Cat #ACK-001-025, Sierra Sensors, Billerica, MA) and conjugated with an anti-his tag antibody. The reaction was then quenched with 1M ethanolamine (Amine Coupling Kit II, Cat #ACK-001-025, Sierra Sensors). Recombinant c-Jun containing a his-tag was then bound to the tips. The peptides were allowed to saturate the receptor at a concentration of 10× the KD of each peptide. After receptor saturation binding of full-length CAPER to the receptor was measured and the signal was compared back to full-length CAPER binding to the receptor in the absence of the peptide. Binding steps were performed for 900s each in 1× HBS-EP+ buffer (cat #BR100669, GE Healthcare Lifesciences, Pittsburgh, PA) supplemented with 450 mM NaCl (Sigma). The background was subtracted from each run and the signal was represented as a % inhibition compared to full-length CAPER binding in the absence of the peptide.

[13] = his-tagged c-Jun on anti-his tips

T3 sequence (P05412 whole entry): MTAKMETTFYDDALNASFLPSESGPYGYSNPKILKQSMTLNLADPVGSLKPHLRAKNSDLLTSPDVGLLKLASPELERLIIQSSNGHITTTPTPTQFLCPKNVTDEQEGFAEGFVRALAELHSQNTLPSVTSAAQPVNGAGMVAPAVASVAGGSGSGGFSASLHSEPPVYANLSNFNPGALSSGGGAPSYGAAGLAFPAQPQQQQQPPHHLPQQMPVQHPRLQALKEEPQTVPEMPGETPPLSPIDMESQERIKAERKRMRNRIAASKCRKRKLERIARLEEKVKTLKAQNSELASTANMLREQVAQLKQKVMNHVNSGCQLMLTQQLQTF

Row | koff (c-Jun [1]) [s⁻¹] | kon (c-Jun [1]) [M⁻¹ s⁻¹] | koff (Estrogen Receptor α) [s⁻¹] | kon (Estrogen Receptor α) [M⁻¹ s⁻¹] | Binding of full-length recombinant CAPER to ERα (ERα) | Molecule | Effect on cell cycle (MDA-MB-231 cells [2]) | Effect on cell cycle (BT549 cells [3]) | Cell number (MCF7 cells [4]) | Apoptotic cells (MCF10A cells [5]) | Cell count (MCF10A cells [6]) | Cell number (MDA-MB-231 cells [7]) | Cell number (BT549 cells [8]) | Early apoptotic and apoptotic dead cells (MCF7 cells [9]) | Live cells (MCF7 cells [9]) | Early apoptotic and apoptotic dead cells (MDA-MB-231 cells [10]) | Live cells (MDA-MB-231 cells [10]) | Early apoptotic and apoptotic dead cells (BT549 cells [11]) | Live cells (BT549 cells [11]) | KD, binding to c-Jun (c-Jun [1]; [13]) | further results
1 | 0.000337 | 37900 | 0.000115 | 25400 | alter the binding | Biotin-RLQLMARLAEGTGLQIPPAAQQALQMSGSLAFGAVADLQTRLSQQ (N-terminus assumed) [CAPER peptide HCC1.3] | no effect | no effect | significant decrease | no significant change | no significant change | significant decrease | significant decrease | significant increase | significant decrease | significant increase | significant decrease | significant increase | significant decrease | – | –
2 | 0.00098 | 38300 | 0.00172 | 57100 | alter the binding | Biotin-RLQLMARLAEGTGLQIPPAAQQALQMSGSLAFGAVAEFSFVIDLQ (N-terminus assumed) [CAPER peptide HCC1.4] | no effect | no effect | significant decrease | no significant change | no significant change | significant decrease | significant decrease | significant increase | significant decrease | significant increase | significant decrease | significant increase | significant decrease | – | –
3 | – | – | – | – | – | VGDALQGLRLFSTQASIGAQMEQLAAQPLRAGQMLQLAQASPLRT [CAPER scrambled peptide, scrambled control peptide, reference compound] | – | – | – | – | – | – | – | – | – | – | – | – | – | could not be determined | Inhibition of full-length recombinant CAPER binding to c-Jun (c-Jun [12]): no significant change
4 | – | – | – | – | – | YGRKKRRQRRR [TAT only control, reference compound] | – | – | – | – | – | – | – | – | – | – | – | – | – | could not be determined | –
5 | – | – | – | – | – | Recombinant Full-Length CAPER HCC1.3: full-length recombinant CAPER (R&D Systems), isoform HCC1.3 (protein) MADDIDIEAMLEAPYKKDENKLSSANGHEERSKKRKKSKSRSRSHERKRSKSKERKRSRDRERKKSKSRERKRSRSKERRRSRSRSRDRRFRGRYRSPYSGPKFNSAIRGKIGLPHSIKLSRRRSRSKSPFRKDKSPVREPIDNLTPEERDARTVFCMQLAARIRPRDLEEFFSTVGKVRDVRMISDRNSRRSKGIAYVEFVDVSSVPLAIGLTGQRVLGVPIIVQASQAEKNRAAAMANNLQKGSAGPMRLYVGSLHFNITEDMLRGIFEPFGRIESIQLMMDSETGRSKGYGFITFSDSECAKKALEQLNGFELAGRPMKVGHVTERTDASSASSFLDSDELERTGIDLGTTGRLQLMARLAEGTGLQIPPAAQQALQMSGSLAFGAVADLQTRLSQQTEASALAAAASVQPLATQCFQLSNMFNPQTEEEVGWDTEIKDDVIEECNKHGGVIHIYVDKNSAQGNVYVKCPSIAAAIAAVNALHGRWFAGKMITAAYVPLPTYHNLFPDSMTATQLLVPSRR | – | – | – | – | – | – | – | – | – | – | – | – | – | – | K off, binding to c-Jun (c-Jun [1]): 5.66e-05 s⁻¹; K on, binding to c-Jun (c-Jun [1]): 312000 M⁻¹ s⁻¹; Kd (c-Jun [1]; [13]): 180 pM; K off, binding to Estrogen Receptor α (Estrogen Receptor α): 2.34e-05 s⁻¹; K on, binding to Estrogen Receptor α (Estrogen Receptor α): 937000 M⁻¹ s⁻¹
